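Where inhibition never reached the appropriate level, the endpoint shown equals the highest concentration tested. Otherwise, values were interpolated linearly from a five-concentration, 48-hour dose response in 96-well plates. The concentration for 50% growth inhibition is given as GI50.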 Calls of active or inactive are those of the source. No stated cut-off is given here; in the data, active = GI50 up to about 1.1 µM and inactive = higher.
How the values were obtained:
Test in all cases: growth of human tumour cells (NCI), 48 h
ACHN = tested on: ACHN
HOP-62 = tested on: HOP-62
HOP-18 = tested on: HOP-18
SW-620 = tested on: SW-620
Malme-3M = tested on: Malme-3M
SF-539 = tested on: SF-539
NCI-H460 = tested on: NCI-H460
KM12 = tested on: KM12
RXF 393 = tested on: RXF 393
KM-20L2 = tested on: KM-20L2
SR = tested on: SR
M19-MEL = tested on: M19-MEL
LXFL 529 = tested on: LXFL 529
A498 = tested on: A498
DLD-1 = tested on: DLD-1
TK-10 = tested on: TK-10

Measured: GI50

COc1ccc(-c2cc(-c3ccccc3)c(C#N)c(=O)n2C2OC(CO)C(O)C(O)C2O)cc1 (stereo not drawn)
inactive: ACHN > 100 µM | HOP-62 > 100 µM | HOP-18 > 100 µM | SW-620 > 100 µM | Malme-3M > 100 µM | SF-539 > 100 µM | NCI-H460 > 100 µM | KM12 > 100 µM | RXF 393 > 100 µM | KM-20L2 > 100 µM | SR > 100 µM | M19-MEL > 100 µM | LXFL 529 > 100 µM | A498 > 100 µM | DLD-1 > 100 µM | TK-10 > 100 µM

CCN(CC)CCC(=O)/C=C/c1ccc(C)cc1
inactive: ACHN 14.4 µM | HOP-62 25.7 µM | HOP-18 17.6 µM | SW-620 4.69 µM | Malme-3M 19.3 µM | SF-539 6.32 µM | NCI-H460 15.7 µM | KM12 3.18 µM | RXF 393 15.3 µM | KM-20L2 15.6 µM | SR 6.78 µM | M19-MEL 12.8 µM | LXFL 529 7.67 µM | A498 11.2 µM | DLD-1 6.17 µM | TK-10 6.85 µM

COc1ccc(N2C(=O)C3c4[nH]c5ccccc5c4C4CCCCC4C3C2=O)cc1 (stereo not drawn)
inactive: ACHN 22.5 µM | HOP-62 15 µM | HOP-18 22.4 µM | SW-620 29.1 µM | Malme-3M 5.56 µM | SF-539 14.5 µM | NCI-H460 19.5 µM | KM12 38.5 µM | RXF 393 20.8 µM | KM-20L2 39.4 µM | SR 11.7 µM | M19-MEL 28.8 µM | LXFL 529 22.2 µM | A498 24.6 µM | DLD-1 49 µM | TK-10 21.3 µM

CC1=C/C(=C2/N=C(N(C)C)SS2)C(C)=N1.[O-][Cl+3]([O-])([O-])O
inactive: ACHN > 100 µM | HOP-62 > 100 µM | HOP-18 > 100 µM | SW-620 > 100 µM | Malme-3M 21.8 µM | SF-539 > 100 µM | NCI-H460 > 100 µM | KM12 > 100 µM | RXF 393 > 100 µM | KM-20L2 > 100 µM | SR > 100 µM | M19-MEL 10.6 µM | LXFL 529 > 100 µM | A498 > 100 µM | DLD-1 > 100 µM | TK-10 > 100 µM

COc1nc2c(nc(N)n2C2OC(CO)C(O)C(O)C2O)c(=O)[nH]1 (stereo not drawn)
inactive: ACHN > 100 µM | HOP-62 > 100 µM | HOP-18 > 100 µM | SW-620 > 100 µM | Malme-3M > 100 µM | SF-539 > 100 µM | NCI-H460 > 100 µM | KM12 > 100 µM | RXF 393 > 100 µM | KM-20L2 > 100 µM | SR > 100 µM | M19-MEL > 100 µM | LXFL 529 > 100 µM | A498 > 100 µM | DLD-1 > 100 µM | TK-10 > 100 µM

CC(C)(C)[Si](OC1CC(n2cnc3c(N)ncnc32)OC1CO)(c1ccccc1)c1ccccc1 (stereo not drawn)
inactive: ACHN 13.6 µM | HOP-62 22.5 µM | HOP-18 67.6 µM | SW-620 19 µM | Malme-3M 19 µM | SF-539 20.2 µM | NCI-H460 16.3 µM | KM12 19.8 µM | RXF 393 13.4 µM | KM-20L2 15.4 µM | SR 14.5 µM | M19-MEL 19.7 µM | LXFL 529 34.6 µM | A498 17.9 µM | DLD-1 15.5 µM | TK-10 24.2 µM

N=C(N)NS(=O)(=O)c1ccc(NC(=O)c2cccn3c(=O)c4ccccc4nc23)cc1
inactive: ACHN 81.8 µM | HOP-62 > 100 µM | HOP-18 > 100 µM | SW-620 51.5 µM | Malme-3M > 100 µM | SF-539 > 100 µM | NCI-H460 53.1 µM | KM12 15.9 µM | RXF 393 62.8 µM | KM-20L2 13.6 µM | SR 24.5 µM | M19-MEL 31.4 µM | LXFL 529 37.5 µM | A498 > 100 µM | DLD-1 83 µM | TK-10 61 µM

COc1ccc2nc(C(=O)c3ccccc3)c(C)cc2c1
inactive: ACHN 10 µM | HOP-62 6.47 µM | HOP-18 > 26.9 µM | SW-620 2.81 µM | Malme-3M 2.94 µM | SF-539 3.05 µM | NCI-H460 7.24 µM | KM12 6.58 µM | RXF 393 2.7 µM | KM-20L2 3.18 µM | SR 2.81 µM | M19-MEL 7.82 µM | LXFL 529 9.25 µM | A498 2.74 µM | DLD-1 4.84 µM | TK-10 11.1 µM

From ChEMBL document CHEMBL1201862, “PubChem BioAssay data set” (2004)
